Measurements from ChEMBL document CHEMBL5532651, “HDAC specificity and kinase off-targeting by purine-benzohydroxamate anti-hematological tumor agents” (Eur J Med Chem, 2024).
Calls of active or inactive are those of the source. The rule behind the calls is not given here.

Experiments:
HCT-116 = assay: cells; settings: Homo sapiens
MCF7 = assay: cells; assay type: functional, cell-based; settings: Homo sapiens
Jurkat [1] = assay: cells; settings: Homo sapiens
NAMALVA [2] = assay: cells; settings: Homo sapiens
CYP2C9 = CYP2C9 (Homo sapiens, UniProt P11712); assay: Inhibition of CYP2C9 in liver microsomes (unknown origin) at 10 uM incubated for 10 mins relative to control; assay type: ADME, Microsome
CYP2D6 = CYP2D6 (Homo sapiens, UniProt P10635); assay: Inhibition of CYP2D6 in liver microsomes (unknown origin) at 10 uM incubated for 10 mins relative to control; assay type: ADME, Microsome
CYP1A2 [3] = molecular target: T1, CYP1A2 (Homo sapiens, UniProt P05177); assay: Inhibition of CYP1A2 in liver microsomes (unknown origin) at 40 uM incubated for 10 mins relative to control; assay type: ADME, Microsome
T1 sequence (P05177 whole entry): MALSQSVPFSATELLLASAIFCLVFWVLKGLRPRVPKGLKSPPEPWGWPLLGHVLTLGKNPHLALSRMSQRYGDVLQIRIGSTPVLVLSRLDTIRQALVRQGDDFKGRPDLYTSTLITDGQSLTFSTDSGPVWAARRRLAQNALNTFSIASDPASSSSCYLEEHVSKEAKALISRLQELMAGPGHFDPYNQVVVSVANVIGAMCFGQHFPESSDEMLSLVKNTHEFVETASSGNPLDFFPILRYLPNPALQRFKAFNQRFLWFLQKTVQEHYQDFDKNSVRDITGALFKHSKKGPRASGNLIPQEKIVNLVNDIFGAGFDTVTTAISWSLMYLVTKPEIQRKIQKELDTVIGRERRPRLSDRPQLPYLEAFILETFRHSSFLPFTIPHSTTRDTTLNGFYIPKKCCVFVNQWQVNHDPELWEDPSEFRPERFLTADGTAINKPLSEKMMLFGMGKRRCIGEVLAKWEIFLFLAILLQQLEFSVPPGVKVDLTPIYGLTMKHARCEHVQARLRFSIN

CYP1A2 [4] = molecular target: T1, CYP1A2; assay: Inhibition of CYP1A2 in liver microsomes (unknown origin) at 10 uM incubated for 10 mins relative to control; assay type: ADME, Microsome
[5] = Stability in mouse liver microsome assessed as half life at 1 uM measured for 60 mins by LC-MS/MS analysis; assay type: ADME; settings: liver microsomes
[6] = Stability in human liver microsome assessed as intrinsic clearance at 1 uM measured for 60 mins by LC-MS/MS analysis; assay type: ADME; settings: liver microsomes, read-out: CLH
[7] = Stability in mouse liver microsome assessed as intrinsic clearance at 1 uM measured for 60 mins by LC-MS/MS analysis; assay type: ADME; settings: liver microsomes, read-out: CLH
[8] = Stability in human liver microsome assessed as half life at 1 uM measured for 60 mins by LC-MS/MS analysis; assay type: ADME; settings: liver microsomes
[9] = molecular target: T2, Protein deacetylase HDAC6 (Homo sapiens, UniProt Q9UBN7); assay: Inhibition of HDAC6 (unknown origin)
T2 sequence (Q9UBN7 whole entry): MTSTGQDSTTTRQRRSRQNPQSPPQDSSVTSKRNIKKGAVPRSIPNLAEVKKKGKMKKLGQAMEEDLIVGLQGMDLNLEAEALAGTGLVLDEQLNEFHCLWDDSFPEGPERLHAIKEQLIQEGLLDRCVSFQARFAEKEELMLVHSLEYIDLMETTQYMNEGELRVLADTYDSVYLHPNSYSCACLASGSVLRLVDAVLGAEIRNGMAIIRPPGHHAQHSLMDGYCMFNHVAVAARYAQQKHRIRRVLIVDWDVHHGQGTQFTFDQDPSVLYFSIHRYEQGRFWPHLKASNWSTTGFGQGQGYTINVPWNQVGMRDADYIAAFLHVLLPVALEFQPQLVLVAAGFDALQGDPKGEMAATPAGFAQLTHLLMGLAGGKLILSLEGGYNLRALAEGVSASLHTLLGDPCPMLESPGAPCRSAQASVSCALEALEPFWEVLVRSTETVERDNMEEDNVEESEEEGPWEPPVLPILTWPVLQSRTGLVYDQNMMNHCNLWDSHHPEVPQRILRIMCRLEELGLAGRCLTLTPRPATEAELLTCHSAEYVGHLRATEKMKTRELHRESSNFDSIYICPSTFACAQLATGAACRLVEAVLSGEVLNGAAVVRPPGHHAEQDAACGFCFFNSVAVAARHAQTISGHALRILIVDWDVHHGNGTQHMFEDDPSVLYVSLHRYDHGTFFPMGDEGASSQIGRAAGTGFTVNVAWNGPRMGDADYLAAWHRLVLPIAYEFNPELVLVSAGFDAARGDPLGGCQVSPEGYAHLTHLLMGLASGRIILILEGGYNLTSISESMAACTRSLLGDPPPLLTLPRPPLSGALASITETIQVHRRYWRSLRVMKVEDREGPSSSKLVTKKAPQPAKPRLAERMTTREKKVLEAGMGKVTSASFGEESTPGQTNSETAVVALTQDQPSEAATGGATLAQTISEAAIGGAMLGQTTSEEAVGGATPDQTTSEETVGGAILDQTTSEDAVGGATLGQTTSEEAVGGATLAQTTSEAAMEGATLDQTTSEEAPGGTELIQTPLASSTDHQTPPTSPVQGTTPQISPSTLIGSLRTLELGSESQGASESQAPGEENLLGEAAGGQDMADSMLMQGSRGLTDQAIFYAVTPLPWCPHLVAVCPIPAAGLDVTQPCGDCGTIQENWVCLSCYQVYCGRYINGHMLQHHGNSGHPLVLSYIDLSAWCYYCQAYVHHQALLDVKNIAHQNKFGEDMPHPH

[10] = molecular target: T2, Protein deacetylase HDAC6; assay: Inhibition of full-length recombinant human HDAC6 expressed in baculovirus infected Sf9 cells using RHKK(Ac)AMC as substrate preincubated for 5 to 10 mins followed by substrate addition measured after 2 hrs by fluorescence based assay
[11] = molecular target: T3, Protein deacetylase HDAC6 (Homo sapiens) (UniProt Q9UBN7); assay: Inhibition of HDAC6 in human NAMALVA cells assessed as increase in acetyl-alpha-tubulin level at IC50 incubated for 48 hrs by Western blot analysis; assay type: cell-based
T3 sequence (whole entry): T2 sequence (Q9UBN7 whole entry)

[12] = molecular target: T3, Protein deacetylase HDAC6 (Homo sapiens); assay: Inhibition of HDAC6 in human Jurkat cells assessed as increase in acetyl-histone H3 level at IC50 incubated for 48 hrs by Western blot analysis; assay type: cell-based
U-937 [13] = assay: Cytotoxicity against human U-937 cells assessed as cell growth inhibition incubated for 24 to 72 hrs by MTT assay; assay type: functional, cell-based; settings: time lower 24.0 hrs, time upper […]
[14] = molecular target: T3, Protein deacetylase HDAC6 (Homo sapiens); assay: Inhibition of HDAC6 in human Jurkat cells assessed as increase in acetyl-alpha-tubulin level at IC50 incubated for 48 hrs by Western blot analysis; assay type: cell-based
U-937 [15] = assay: Cytotoxicity against human U-937 cells assessed as cell growth inhibition at 1.6 to 6.4 uM by MTT assay; assay type: functional, cell-based; settings: dose 1.6-6.4 µM, time lower 24.0 hrs, time upper […], TDE = time-dependent effect
[16] = molecular target: T3, Protein deacetylase HDAC6 (Homo sapiens); assay: Inhibition of HDAC6 in human U-937 cells assessed as increase in acetyl-alpha-tubulin level at IC50 incubated for 48 hrs by Western blot analysis; assay type: cell-based
Jurkat [17] = assay: Inhibition of cell proliferation of human Jurkat cells assessed as reduction in Ki-67 expression at IC50 measured after 48 hrs by flow cytometry; assay type: functional, cell-based
[18] = molecular target: T3, Protein deacetylase HDAC6 (Homo sapiens); assay: Inhibition of HDAC6 in human NAMALVA cells assessed as increase in acetyl-histone H3 level at IC50 incubated for 48 hrs by Western blot analysis; assay type: cell-based
Jurkat [19] = assay: Cytotoxicity against human Jurkat cells assessed as cell growth inhibition at 0.03 to 1.8 uM by MTT assay; assay type: functional, cell-based; settings: dose 0.03-1.8 µM, time lower 24.0 hrs, time upper […], TDE = time-dependent effect
NAMALVA [20] = assay: Cytotoxicity against human NAMALVA cells assessed as cell growth inhibition at 0.04 to 17.4 uM by MTT assay; assay type: functional, cell-based; settings: dose 0.04-17.4 µM, time lower 24.0 hrs, time upper […], TDE = time-dependent effect
NAMALVA [21] = assay: Induction of apoptosis in human NAMALVA cells at IC50 measured after 48 hrs by flow cytometry; assay type: functional, cell-based
NAMALVA [22] = assay: Inhibition of cell proliferation of human NAMALVA cells assessed as reduction in Ki-67 expression at IC50 measured after 48 hrs by flow cytometry; assay type: functional, cell-based
U-937 [23] = assay: Inhibition of cell proliferation of human U-937 cells assessed as reduction in Ki-67 expression at IC50 measured after 48 hrs by flow cytometry; assay type: functional, cell-based
U-937 [24] = assay: Induction of apoptosis in human U-937 cells at IC50 measured after 48 hrs by flow cytometry; assay type: functional, cell-based
[25] = molecular target: T3, Protein deacetylase HDAC6 (Homo sapiens); assay: Inhibition of HDAC6 in human U-937 cells assessed as increase in acetyl-histone H3 level at IC50 incubated for 48 hrs by Western blot analysis; assay type: cell-based
Jurkat [26] = assay: Induction of apoptosis in human Jurkat cells at IC50 measured after 48 hrs by flow cytometry; assay type: functional, cell-based

Chain of CYP2D6 (P10635 whole entry): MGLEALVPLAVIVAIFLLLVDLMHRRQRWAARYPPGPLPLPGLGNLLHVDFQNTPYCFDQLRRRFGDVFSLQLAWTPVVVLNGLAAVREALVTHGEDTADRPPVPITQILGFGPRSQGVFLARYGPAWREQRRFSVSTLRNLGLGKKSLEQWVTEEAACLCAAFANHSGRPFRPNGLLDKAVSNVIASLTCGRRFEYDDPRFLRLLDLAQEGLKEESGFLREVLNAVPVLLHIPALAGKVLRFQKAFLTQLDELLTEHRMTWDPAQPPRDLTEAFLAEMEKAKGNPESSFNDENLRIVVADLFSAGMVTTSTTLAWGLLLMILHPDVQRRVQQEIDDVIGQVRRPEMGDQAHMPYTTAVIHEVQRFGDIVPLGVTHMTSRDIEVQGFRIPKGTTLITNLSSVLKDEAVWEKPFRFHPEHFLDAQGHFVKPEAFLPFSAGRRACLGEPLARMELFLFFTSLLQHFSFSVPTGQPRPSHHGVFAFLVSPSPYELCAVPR
Chain of CYP2C9 (P11712 whole entry): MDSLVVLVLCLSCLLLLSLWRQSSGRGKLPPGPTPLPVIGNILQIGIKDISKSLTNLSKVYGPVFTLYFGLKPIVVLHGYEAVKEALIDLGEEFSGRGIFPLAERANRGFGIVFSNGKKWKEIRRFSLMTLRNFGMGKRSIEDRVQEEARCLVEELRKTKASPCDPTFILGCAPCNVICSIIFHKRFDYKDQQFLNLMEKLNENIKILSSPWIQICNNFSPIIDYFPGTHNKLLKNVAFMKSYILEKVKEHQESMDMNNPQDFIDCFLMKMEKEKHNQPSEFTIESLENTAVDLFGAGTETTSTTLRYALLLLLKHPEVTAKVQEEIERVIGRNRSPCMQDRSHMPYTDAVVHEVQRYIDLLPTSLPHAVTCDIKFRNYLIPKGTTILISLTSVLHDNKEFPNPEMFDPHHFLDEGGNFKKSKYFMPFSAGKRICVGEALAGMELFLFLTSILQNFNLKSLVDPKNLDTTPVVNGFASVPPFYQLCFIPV

O=C(NO)c1ccc(Cn2cnc3c(Nc4ccccc4)ncnc32)cc1
IC50 (HCT-116): > 50 µM | IC50 (MCF7): > 50 µM | IC50 (Jurkat [1]): 0.2 µM | IC50 (NAMALVA [2]): 0.13 µM

Cc1ccc(Nc2ncnc3c2ncn3Cc2ccc(C(=O)NO)cc2)cc1S(N)(=O)=O
IC50 (HCT-116): > 50 µM | IC50 (MCF7): > 50 µM | IC50 (Jurkat [1]): > 50 µM | IC50 (NAMALVA [2]): > 50 µM

O=C(NO)c1ccc(Cn2cnc3c(Nc4ccc(Cl)c(C(F)(F)F)c4)ncnc32)cc1
IC50 (HCT-116): 2.9 µM | IC50 (MCF7): 13.2 µM | IC50 (Jurkat [1]): 0.25 µM | IC50 (NAMALVA [2]): 0.26 µM

Cc1nc2c([nH]1)c(=O)n(C)c(=O)n2Cc1ccco1 [FURAFYLLINE]
inhibition at 10 min, 10 µM (CYP2C9): 10% | inhibition at 10 min, 10 µM (CYP2D6): 10% | inhibition at 10 min, 40 µM (CYP1A2 [3]): 78%

CC(=O)N1CCN(c2ccc(OCC3COC(Cn4ccnc4)(c4ccc(Cl)cc4Cl)O3)cc2)CC1 (stereo not drawn) [KETOCONAZOLE]
inhibition at 10 min, 10 µM (CYP2C9): 10% | inhibition at 10 min, 10 µM (CYP1A2 [4]): 10%

O=C(NO)c1ccc(Cn2cnc3c(O)ncnc32)cc1
IC50 (HCT-116): > 50 µM | IC50 (MCF7): > 50 µM | IC50 (Jurkat [1]): > 50 µM | IC50 (NAMALVA [2]): > 50 µM

CCN(CC)CCNC(=O)c1c(C)[nH]c(/C=C2\C(=O)Nc3ccc(F)cc32)c1C [SUNITINIB]
half-life at 1 µM [5]: 12 min | microsomal CLint at 1 µM [6]: 21 µL/min/mg | microsomal CLint at 1 µM [7]: 58 µL/min/mg | half-life at 1 µM [8]: 33 min

C=C[C@H]1C[N@@]2CC[C@H]1C[C@@H]2[C@@H](O)c1ccnc2ccc(OC)cc12 [QUINIDINE]
inhibition at 10 min, 10 µM (CYP2C9): 10% | inhibition at 10 min, 10 µM (CYP1A2 [4]): 10% | inhibition at 10 min, 10 µM (CYP2D6): 86%

O=C(NO)c1ccc(Nc2ncnc3[nH]cnc23)cc1
IC50 (HCT-116): > 50 µM | IC50 (MCF7): > 50 µM | IC50 (Jurkat [1]): > 50 µM | IC50 (NAMALVA [2]): > 50 µM

COc1ccc(Nc2ncnc3c2ncn3Cc2ccc(C(=O)NO)cc2)cc1OC
IC50 (HCT-116): 16.3 µM | IC50 (MCF7): > 50 µM | IC50 (Jurkat [1]): 0.6 µM | IC50 (NAMALVA [2]): 0.5 µM

O=C(/C=C/c1cccc(S(=O)(=O)Nc2ccccc2)c1)NO [BELINOSTAT]
IC50 [9]: 2.6 µM

COc1cc(Nc2ncnc3c2ncn3Cc2ccc(C(=O)NO)cc2)cc(OC)c1OC
IC50 (HCT-116): > 50 µM | IC50 (MCF7): > 50 µM | IC50 (NAMALVA [2]): 0.8 µM

O=C(NO)c1ccc(Cn2cnc3c(Nc4ccc(Br)cc4F)ncnc32)cc1
IC50 [10]: 0.184 µM | inhibition [11]: Active | inhibition at 10 min, 10 µM (CYP2C9): 42% | inhibition [12]: Active | inhibition (U-937 [13]): Dose-Dependent Effect | inhibition at 10 min, 10 µM (CYP1A2 [4]): 47% | inhibition [14]: Active | half-life at 1 µM [5]: 35 min | inhibition at 10 min, 10 µM (CYP2D6): 10% | IC50 (HCT-116): 21.7 µM | inhibition (U-937 [15]): Tde | inhibition [16]: Active | inhibition (Jurkat [17]): Active | IC50 (MCF7): 21.7 µM | microsomal CLint at 1 µM [6]: < 6 µL/min/mg | inhibition [18]: Active | inhibition (Jurkat [19]): Tde | inhibition (NAMALVA [20]): Tde | microsomal CLint at 1 µM [7]: 20 µL/min/mg | Activity (NAMALVA [21]): Active | inhibition (NAMALVA [22]): Active | inhibition (U-937 [23]): Active | IC50 (Jurkat [1]): 0.03 µM | half-life at 1 µM [8]: > 120 min | Activity (U-937 [24]): Active | IC50 (NAMALVA [2]): 0.04 µM | inhibition [25]: Active | Activity (Jurkat [26]): Active

COC(=O)c1ccc(Cn2cnc3c(Nc4ccc(Cl)c(C(F)(F)F)c4)ncnc32)cc1
IC50 (HCT-116): > 50 µM | IC50 (MCF7): > 50 µM | IC50 (Jurkat [1]): > 50 µM | IC50 (NAMALVA [2]): > 50 µM

Nc1ccc(S(=O)(=O)Nc2ccnn2-c2ccccc2)cc1 [SULFAPHENAZOLE]
inhibition at 10 min, 10 µM (CYP1A2 [4]): 10% | inhibition at 10 min, 10 µM (CYP2D6): 10%

O=C(NO)c1cccc(Cn2cnc3c(O)ncnc32)c1
IC50 (HCT-116): > 50 µM | IC50 (MCF7): > 50 µM | IC50 (Jurkat [1]): > 50 µM | IC50 (NAMALVA [2]): > 50 µM
